A short description of this data set: Exploratory studies on the cause of the side effects of CXL-1020. Particulars: in vivo. The protocol:
Exploratory studies were continued to determine the cause of the undesirable side effects of CXL-1020 at the higher, but still clinically desirable, doses. […] Studies were conducted with alternative nitroxyl donors that were structurally unrelated to CXL-1020 but had similar half-lives for nitroxyl donation (half-lives of about 2 minutes). For these donors, nitroxyl was at its highest intravascular concentration at the catheter tip and immediately downstream in the vein into which the catheter had been inserted. In all instances, local vascular side effects at the catheter tip were observed.

The source of these data is patent US9586896B2, “Nitroxyl donors with improved therapeutic index” (Cardioxyl Pharmaceuticals, Inc., priority 2013, dated 2017).

Consider `CS(=O)(=O)c1ccccc1S(=O)O` [byproduct of CXL-1020], for which the “side effect studies with the byproduct” value is reported as “negative”.
